Source: patent EP1534672B1, “RETINOL DERIVATIVES, THEIR USE IN THE TREATMENT OF CANCER AND FOR POTENTIATING THE EFFICACY OF OTHER CYTOTOXIC AGENTS” (priority 2002, dated 2004)
pIC50: −log10 of the molar value. Read-outs that look alike come from different tables or passages of the source. Marks after values point to notes of the source that are not given here.

Experiments:
Assay in all cases: Drug cytotoxicity testing (viable cell count, trypan blue exclusion, cell growth inhibition)
Format in all cases: cell-based
[1] = tested on: Human Prostate Carcinoma Cell Line DU 145; details: alone or in formulation at molar ratio 1:6
Experimental: (§1) MDA-MB-231 cells were propagated in MEM culture medium with 2 mM L-glutamine, 10% heat-inactivated fetal bovine serum (FBS) and antibiotics. DU 145 cells were cultured in MEM culture medium containing 2 mM L-glutamine, 1 mM sodium pyruvate, 10% FBS and antibiotics. SKOV-3 cells were cultured in McCoy's 5A culture medium, supplemented with 1,5 mM L-glutamine, 10% FBS and antibiotics. A549 cells were cultured in Ham's F-12 culture medium with 1 mM L-glutamine, 10% FBS and antibiotics. All media and supplements were purchased from Sigma-Aldrich (St.Louis, MO, USA). Cell propagation of all lines was carried out in Falcon™ 25 cm^2 cultivation flasks (Becton Dickinson Labware).
(§2) Drug cytotoxicity testing was carried out with using Falcon™ 96-well cultivation plates for adherent cells (Becton Dickinson Labware). These plates were seeded by cells either at 12 × 10^3 MDA-MB-231 cells/well, or at 12 × 10^3 DU 145 cells/well, or at 14 × 10^3 SKOV-3 cells/well, or at 10 × 10^3 A549 cells/well in a volume of 200 µL/well.
(§3) The cell cultures in cultivation plates were allowed to adhere for 24 hour of incubation. On day 1 after cell seeding, 2 µL solutions of the drugs to be tested in medium with 5% FBS was added to the cultures. In the control cultures, 2 µL of medium with 5% FBS was added as solvent control. The cells were incubated for 2 consecutive days. At the end of the incubation period adherent cells were detached by trypsinization and the number of viable cells was counted using trypan blue exclusion test and a hemocytometer. All data were derived from an average of three determinations each in six replicates. The results were expressed as mean cell number ± SE and the differences between control and test series evaluated by means of Student's t-test. The drug cytotoxicity was evaluated based on the extent of cell growth inhibition. The cell growth inhibition of the tested drugs was calculated as follows: Cell growth inhibition,% = (Control-TestSeries)/(Control) × 100 [formula]

[2] = tested on: Human Ovary Adenocarcinoma Cell Line SKOV-3; details: alone or in formulation at molar ratio 1:6
Experimental: as §1, §2, §3

[3] = tested on: Human Breast Adenocarcinoma Cell Line MDA-MB-231; details: for pIC50 / inhibition at 0.1 µM / inhibition at 0.01 µM / inhibition at 0.001 µM: Homo sapiens; for pIC50: calculated from three concentrations, read-out: IC50 mol/L (a); for inhibition at 0.1 µM / inhibition at 0.01 µM / inhibition at 0.001 µM: read-out: Cell Growth Inhibition, %
Summary of the method: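 A549 cells (10 × 10^3/well) and MDA-MB-231 cells (12 × 10^3/well) were left to adhere for 24 h, then exposed to drugs in medium with 5% FBS for 2 days. Viable cells were counted by trypan blue exclusion after trypsinization. Growth inhibition (%) = (control − test)/control × 100, from three determinations in six replicates each.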

[4] = tested on: Human Lung Carcinoma Cell Line A549
[5] = cytotoxic drug 10^-7 mol/L (100 nM), working solutions in medium with 5% FBS, listed as docetaxel, trihydrate
[6] = cytotoxic drug 10^-7 mol/L (100 nM), working solutions in medium with 5% FBS, trihydrate
[7] = cytotoxic drug 10^-7 mol/L (100 nM), working solutions in medium with 5% FBS, trihydrate, 0.1 µM
[8] = cytotoxic drug 10^-8 mol/L, working solutions in medium with 5% FBS
[9] = cytotoxic drug 10^-9 mol/L, working solutions in medium with 5% FBS
[10] = cytotoxic drug 10^-7 mol/L (100 nM), alone or in formulation at molar ratio 1:6, working solutions in medium with 5% FBS, listed as docetaxel, trihydrate
[11] = cytotoxic drug 10^-7 mol/L (100 nM), alone or in formulation at molar ratio 1:6, working solutions in medium with 5% FBS, trihydrate
[12] = cytotoxic drug 10^-7 mol/L (100 nM), alone or in formulation at molar ratio 1:6, working solutions in medium with 5% FBS, trihydrate, 0.1 µM
[13] = cytotoxic drug 10^-8 mol/L, alone or in formulation at molar ratio 1:6, working solutions in medium with 5% FBS
[14] = cytotoxic drug 10^-9 mol/L, alone or in formulation at molar ratio 1:6, working solutions in medium with 5% FBS
[15] = cytotoxic drug alone 10^-7 mol/L, average of positive controls in medium with 5% FBS, normal saline and saline with 2,3 mM CaCl2
[16] = cytotoxic drug alone 10^-8 mol/L, average of positive controls in medium with 5% FBS, normal saline and saline with 2,3 mM CaCl2
[17] = cytotoxic drug alone 10^-9 mol/L, average of positive controls in medium with 5% FBS, normal saline and saline with 2,3 mM CaCl2

CC(=O)O[C@@]12CO[C@@H]1C[C@H](O)[C@@]1(C)C(=O)[C@H](O)C3=C(C)[C@@H](OC(=O)[C@H](O)[C@@H](NC(=O)OC(C)(C)C)c4ccccc4)C[C@@](O)([C@@H](OC(=O)c4ccccc4)[C@H]21)C3(C)C [Docetaxel, (2R,3S)-N-carboxy-3-phenylisoserine, N-tert-butyl ester, 13-ester with 5β-20-epoxy-1,2α ,4,7β,10β,13α -hexahydroxytax-11-en-9-one 4-acetate 2-benzoate, trihydrate]
inhibition at 0.1 µM ([1]; Homo sapiens, DU-145, cytotoxic drug 10^-7 mol/L (100 nM), working solutions in medium with 5% FBS): 74.5% | inhibition at 0.01 µM ([1]; Homo sapiens, DU-145, cytotoxic drug 10^-8 mol/L, working solutions in medium with 5% FBS): 51.8% | inhibition at 0.001 µM ([1]; Homo sapiens, DU-145, cytotoxic drug 10^-9 mol/L, working solutions in medium with 5% FBS): 34.7% | pIC50 ([1]; Homo sapiens, DU-145, as concentration of cytotoxic drug, medium with 5% FBS, calculated from three concentrations, read-out: IC50 mol/L (a)): 8.10 | Tumor Cell Number, × 10^3 [1, 5]: 14.2 ± 0.85 × 10^3 | Tumor Cell Number, × 10^3 [1, 6]: 10.8 ± 0.94 × 10^3 | Cell Growth Inhibition, % [1, 7]: 74.0* % | Tumor Cell Number, × 10^3 [1, 8]: 20.0 ± 1.16 × 10^3 | Tumor Cell Number, × 10^3 [1, 9]: 27.1 ± 1.07 × 10^3 | inhibition at 0.1 µM ([2]; Homo sapiens, SK-OV-3, cytotoxic drug 10^-7 mol/L (100 nM), working solutions in medium with 5% FBS): 68.7% | inhibition at 0.01 µM ([2]; Homo sapiens, SK-OV-3, cytotoxic drug 10^-8 mol/L, working solutions in medium with 5% FBS): 55.5% | inhibition at 0.001 µM ([2]; Homo sapiens, SK-OV-3, cytotoxic drug 10^-9 mol/L, working solutions in medium with 5% FBS): 34.2% | pIC50 ([2]; Homo sapiens, SK-OV-3, as concentration of cytotoxic drug, medium with 5% FBS, calculated from three concentrations, read-out: IC50 mol/L (a)): 8.28 | Tumor Cell Number, × 10^3 [2, 5]: 16.1 ± 0.94 × 10^3 | Tumor Cell Number, × 10^3 [2, 6]: 16.8 ± 0.80 × 10^3 | Cell Growth Inhibition, % [2, 7]: 67.8* % | Tumor Cell Number, × 10^3 [2, 8]: 23.2 ± 2.19 × 10^3 | Tumor Cell Number, × 10^3 [2, 9]: 34.3 ± 2.01 × 10^3 | pIC50 ([3]; MDA-MB-231, as concentration of cytotoxic drug, alone or in formulation at molar ratio 1:6, medium with 5% FBS): 8.44 | inhibition at 0.1 µM ([3]; MDA-MB-231, cytotoxic drug 10^-7 mol/L (100 nM), alone or in formulation at molar ratio 1:6, working solutions in medium with 5% FBS): 73.3% | inhibition at 0.01 µM ([3]; MDA-MB-231, cytotoxic drug 10^-8 mol/L, alone or in formulation at molar ratio 1:6, working solutions in medium with 5% FBS): 58.1% | inhibition at 0.001 µM ([3]; MDA-MB-231, cytotoxic drug 10^-9 mol/L, alone or in formulation at molar ratio 1:6, working solutions in medium with 5% FBS): 38.7% | inhibition at 0.1 µM ([3]; MDA-MB-231, cytotoxic drug alone 10^-7 mol/L, average of positive controls in medium with 5% FBS, normal saline and saline with 2,3 mM CaCl2): 76.5% | inhibition at 0.01 µM ([3]; MDA-MB-231, cytotoxic drug alone 10^-8 mol/L, average of positive controls in medium with 5% FBS, normal saline and saline with 2,3 mM CaCl2): 56.3% | inhibition at 0.001 µM ([3]; MDA-MB-231, cytotoxic drug alone 10^-9 mol/L, average of positive controls in medium with 5% FBS, normal saline and saline with 2,3 mM CaCl2): 36.4% | pIC50 ([3]; MDA-MB-231, cytotoxic drug alone, average of positive controls): 8.34 | Tumor Cell Number, × 10^3 [3, 10]: 15.4 ± 1.02 × 10^3 | Tumor Cell Number, × 10^3 [3, 11]: 13.7 ± 1.03 × 10^3 | Cell Growth Inhibition, % [3, 12]: 75.4* % | Tumor Cell Number, × 10^3 [3, 13]: 23.4 ± 2.15 × 10^3 | Tumor Cell Number, × 10^3 [3, 14]: 34.2 ± 2.28 × 10^3 | Tumor Cell Number, × 10^3 [3, 15]: 13.6±0.72 × 10^3 | Tumor Cell Number, × 10^3 [3, 16]: 25.3±1.18 × 10^3 | Tumor Cell Number, × 10^3 [3, 17]: 36.8±1.70 × 10^3 | inhibition at 0.1 µM ([4]; Homo sapiens, A549, cytotoxic drug 10^-7 mol/L (100 nM), alone or in formulation at molar ratio 1:6, working solutions in medium with 5% FBS): 80.3% | inhibition at 0.01 µM ([4]; Homo sapiens, A549, cytotoxic drug 10^-8 mol/L, alone or in formulation at molar ratio 1:6, working solutions in medium with 5% FBS): 71.4% | inhibition at 0.001 µM ([4]; Homo sapiens, A549, cytotoxic drug 10^-9 mol/L, alone or in formulation at molar ratio 1:6, working solutions in medium with 5% FBS): 37.5% | inhibition at 0.1 µM ([4]; Homo sapiens, A549, cytotoxic drug alone 10^-7 mol/L, average of positive controls in medium with 5% FBS, normal saline and saline with 2,3 mM CaCl2): 80.3% | inhibition at 0.01 µM ([4]; Homo sapiens, A549, cytotoxic drug alone 10^-8 mol/L, average of positive controls in medium with 5% FBS, normal saline and saline with 2,3 mM CaCl2): 71% | inhibition at 0.001 µM ([4]; Homo sapiens, A549, cytotoxic drug alone 10^-9 mol/L, average of positive controls in medium with 5% FBS, normal saline and saline with 2,3 mM CaCl2): 36% | pIC50 ([4]; Homo sapiens, A549, as concentration of cytotoxic drug, alone or in formulation at molar ratio 1:6, medium with 5% FBS, calculated from three concentrations, read-out: IC50 mol/L (a)): 8.66 | Tumor Cell Number, × 10^3 [4, 10]: 10.6 ± 0.72 × 10^3 | Tumor Cell Number, × 10^3 [4, 11]: 10.5 ± 0.97 × 10^3 | Cell Growth Inhibition, % [4, 12]: 80.8* % | Tumor Cell Number, × 10^3 [4, 13]: 15.6 ± 0.49 × 10^3 | Tumor Cell Number, × 10^3 [4, 14]: 34.1 ± 2.07 × 10^3 | Tumor Cell Number, × 10^3 [4, 15]: 11.0±0.73 × 10^3 | Tumor Cell Number, × 10^3 [4, 16]: 16.2±0.75 × 10^3 | Tumor Cell Number, × 10^3 [4, 17]: 35.7±1.51 × 10^3
